In US12559529B2, “NPY2 receptor agonists” (Boehringer Ingelheim International GmbH, priority 2019, dated 2026):

Legend:
human NPY2 receptor = molecular target: T1, human NPY2 receptor (Homo sapiens, UniProt P49146); experiment: HTRF cAMP Gi assay, hY2R
T1 sequence (P49146 1-381): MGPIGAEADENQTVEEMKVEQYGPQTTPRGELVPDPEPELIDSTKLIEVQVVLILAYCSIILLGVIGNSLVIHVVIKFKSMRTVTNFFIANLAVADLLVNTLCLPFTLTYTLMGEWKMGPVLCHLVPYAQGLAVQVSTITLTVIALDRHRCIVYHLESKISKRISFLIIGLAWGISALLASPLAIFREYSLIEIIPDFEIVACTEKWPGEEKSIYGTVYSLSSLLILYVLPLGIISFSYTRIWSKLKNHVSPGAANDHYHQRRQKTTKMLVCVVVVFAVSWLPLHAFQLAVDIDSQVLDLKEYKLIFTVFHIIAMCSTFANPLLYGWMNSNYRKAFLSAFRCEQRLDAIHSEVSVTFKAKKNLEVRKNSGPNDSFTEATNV
Description: Briefly, the production of intracellular cAMP will generate a competition between unlabeled cAMP and exogenously added d2-cAMP for anti-cAMP antibodies conjugated to cryptate. CHO-K1 cells stably expressing the human NPY1, NPY2, NPY4 and NPY5 receptors were used with the cells brought to life from a frozen stock immediately before assay performance. 2000 cells per well were applied for all four NPY receptor subtype assays. A 384-well format was used applying a total volume of 20 μl using 5 μl cells, 2.5 μl peptide agonist, 2.5 μl forskolin and 5 μl of each of the fluorophores. […] Concentration-response evaluation of compounds was performed with 11 concentrations of agonist peptides (covering 3 decades). EC50 values were calculated by nonlinear regression using sigmoid concentration-response with variable slope.

normal NMRI mice = experiment: Effect on acute food intake in normal NMRI mice; type: in vivo; conditions: male NMRI mice, 10 nmol/kg subcutaneously once
Outline: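 Male NMRI mice acclimatized in an HM-2 real-time food intake monitoring system, fasted 6 h before dark phase. Single subcutaneous dose of 10 nmol/kg peptide given 1 h before dark; n=7-8. Food intake expressed as % of vehicle group (50 mM phosphate pH7, 5% Mannitol).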

human NPY1 receptor = molecular target: T2, human NPY1 receptor (Homo sapiens, UniProt P25929); experiment: HTRF cAMP Gi assay, hY1R; type: cell-based; conditions: Table 4; CHO-K1 cells
T2 construct: expressed in transfected cells; host or cells: CHO-K1
T2 sequence (P25929 1-384): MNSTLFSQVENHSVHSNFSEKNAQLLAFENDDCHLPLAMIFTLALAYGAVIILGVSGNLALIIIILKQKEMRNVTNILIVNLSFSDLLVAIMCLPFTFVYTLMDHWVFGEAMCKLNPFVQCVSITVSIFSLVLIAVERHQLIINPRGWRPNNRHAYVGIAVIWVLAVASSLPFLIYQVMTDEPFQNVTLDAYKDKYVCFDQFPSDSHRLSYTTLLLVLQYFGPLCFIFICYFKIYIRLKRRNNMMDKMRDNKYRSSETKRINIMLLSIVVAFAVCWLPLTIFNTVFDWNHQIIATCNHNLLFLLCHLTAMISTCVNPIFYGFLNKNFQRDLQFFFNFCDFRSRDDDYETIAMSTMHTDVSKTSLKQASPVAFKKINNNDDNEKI

human NPY4 receptor = molecular target: T3, human NPY4 receptor (Homo sapiens, UniProt P50391); experiment: HTRF cAMP Gi assay, hY4R; type: cell-based; conditions: Table 4; CHO-K1 cells
T3 construct: expressed in transfected cells; host or cells: CHO-K1
T3 sequence (P50391 whole entry): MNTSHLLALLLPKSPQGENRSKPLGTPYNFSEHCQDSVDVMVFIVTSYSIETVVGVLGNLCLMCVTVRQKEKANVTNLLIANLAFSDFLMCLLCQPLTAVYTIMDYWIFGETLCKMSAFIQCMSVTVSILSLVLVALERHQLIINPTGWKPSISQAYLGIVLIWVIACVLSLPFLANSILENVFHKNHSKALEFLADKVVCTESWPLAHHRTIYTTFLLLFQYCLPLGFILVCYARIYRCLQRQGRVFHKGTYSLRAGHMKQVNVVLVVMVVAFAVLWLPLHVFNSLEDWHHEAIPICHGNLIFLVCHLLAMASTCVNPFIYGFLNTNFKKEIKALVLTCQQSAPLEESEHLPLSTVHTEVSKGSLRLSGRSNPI
Description: (§1) The Homogenous Time Resolved fluorescence (HTRF) technology optimized for Gi coupled receptors has thoroughly been described in Cisbio cAMP Gi kit manual. Briefly, the production of intracellular cAMP will generate a competition between unlabeled cAMP and exogenously added d2-cAMP for anti-cAMP antibodies conjugated to cryptate. CHO-K1 cells stably expressing the human NPY1, NPY2, NPY4 and NPY5 receptors were used with the cells brought to life from a frozen stock immediately before assay performance. 2000 cells per well were applied for all four NPY receptor subtype assays. A 384-well format was used applying a total volume of 20 μl using 5 μl cells, 2.5 μl peptide agonist, 2.5 μl forskolin and 5 μl of each of the fluorophores. […] Concentration-response evaluation of compounds was performed with 11 concentrations of agonist peptides (covering 3 decades). EC50 values were calculated by nonlinear regression using sigmoid concentration-response with variable slope.

human NPY5 receptor = molecular target: T4, human NPY5 receptor (Homo sapiens, UniProt Q15761); experiment: HTRF cAMP Gi assay, hY5R
T4 sequence (Q15761 1-445): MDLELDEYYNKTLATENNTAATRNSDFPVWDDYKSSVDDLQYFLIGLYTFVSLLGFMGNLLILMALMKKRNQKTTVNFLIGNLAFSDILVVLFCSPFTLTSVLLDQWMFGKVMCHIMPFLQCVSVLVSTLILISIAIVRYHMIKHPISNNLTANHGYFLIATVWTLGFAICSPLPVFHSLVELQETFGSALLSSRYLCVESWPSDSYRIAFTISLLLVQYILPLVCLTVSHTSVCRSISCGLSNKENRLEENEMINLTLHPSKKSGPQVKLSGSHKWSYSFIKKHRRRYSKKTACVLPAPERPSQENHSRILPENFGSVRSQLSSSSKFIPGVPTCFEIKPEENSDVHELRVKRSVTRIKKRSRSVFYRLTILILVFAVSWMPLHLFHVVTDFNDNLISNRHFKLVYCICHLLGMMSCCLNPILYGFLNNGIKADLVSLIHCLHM
Description: as §1

[1] = molecular target: T5, Human Neuropeptide Y2 Receptor (Homo sapiens, UniProt P49146); experiment: Activity (RLB) after incubation in solutions at different pH values; type: binding; conditions: apparent Ki of filtrate after 2 h in buffer, pH6.1-6.2, assumed 10 mg/ml; read-out: RLB 6 (pH6.1-6.2)
T5 construct: purchased CHEMICON HTS066M
T5 sequence (P49146 1-381): T1 sequence (P49146 1-381)
Description: The filtration RLB assay was carried out in 96-well plates in a final volume of 100 μl per well. Freeze-dried test peptides were dissolved in 100% dimethyl sulfoxide (DMSO) to stock solutions of 1 mM and serial dilutions were performed in assay buffer (50 mM HEPES, 5 mM MgCl2, 1 mM CaCl2), pH 7.4) containing 0.2% ovalbumin. […] Next, 80 μL membranes (HTS066M, ChemiSCREEN™ Human Neuropeptide Y2 Receptor Membrane Preparation, CHEMICON) were added to each well to give a final protein concentration of 0.5 μg/well. The plates were sealed and incubated at room temperature for 2 hours in a plate shaker set at 400 rpm. The incubation was stopped by vacuum filtration onto 0.5% poly-ethylene amine (PEI) presoaked GF/C filters using a 96-well FilterMate™ harvester (Perkin Elmer) followed by four washes with 300 μl/well ice-cold wash buffer (50 mM HEPES, 500 mM NaCl, pH7.4). Filter plates were then dried for 60 min at room temperature and the bottom of the plates was sealed with backing tape UniFilter-96. Finally, 50 μl/well scintillation counter cocktail (Microscint20, Packard) was added and the radioactivity was counted in the Packard TopCount NXT scintillation counter. IC50 values (the half maximal inhibitory concentration of the agonist) were calculated by nonlinear regression analysis of sigmoidal dose-response curves.
Peptides (as TFA salts) were weighed out in a filter unit (Mini-UniPrep Syringeless Filter 0.45 μm, Whatman), and 0.1 M sodium diphosphate buffer at pH 6.4 or 7.4, respectively, or 0.2 M TRIS buffer at pH 8.3 was added to achieve 10 mg/ml final concentration. The peptide was (partially) dissolved by shaking the filter unit horizontally at approx. 400 rpm for 2 hours at room temperature. The sample was filtered to remove any insoluble particles.

[2] = molecular target: T5, Human Neuropeptide Y2 Receptor; experiment: Radioligand binding competition assay (RLB); conditions: Table 3; human 125I-PYY (1-36) 0.02 nM, Y2 receptor membranes; read-out: Ki
Outline: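 Competition binding on human Y2 receptor membranes, 0.5 μg protein/well, in 50 mM HEPES, 5 mM MgCl2, 1 mM CaCl2, pH 7.4, 0.2% ovalbumin; peptides diluted from 1 mM DMSO stocks.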

Row | Structure (SMILES) | EC50 (human NPY2 receptor) | Acute Food Intake 24 h [% vehicle] (normal NMRI mice) | EC50 (human NPY1 receptor) | EC50 (human NPY4 receptor) | EC50 (human NPY5 receptor) | Ki [1] | Ki [2]
1 | CC[C@H](C)[C@H](NC(=O)[C@H](CCC(=O)O)NC(=O)[C@H](CCC(=O)O)NC(=O)[C@@H]1CCCN1C(=O)[C@H](CO)NC(=O)[C@H](C)NC(=O)[C@H](CC(=O)O)NC(=O)[C@H](CCC(=O)O)NC(=O)[C@H](CCC(=O)O)NC(=O)[C@@H]1CCCN1C(=O)[C@H](CCCCNC(=O)COCCOCCNC(=O)COCCOCCNC(=O)CC[C@H](NC(=O)CCCCCCCCCCCCCCCCC(=O)O)C(=O)O)NC(=O)[C@H](CCC(=O)O)NC(=O)[C@@H]1CCCN1C(=O)[C@H](C)NC(=O)CC(C)C)C(=O)N[C@@H](CCC(N)=O)C(=O)N[C@@H](CCC(N)=O)C(=O)N[C@@H](Cc1ccc(O)cc1)C(=O)N[C@@H](Cc1ccc(O)cc1)C(=O)N[C@H](C(=O)N[C@@H](CO)C(=O)N[C@@H](CC(C)C)C(=O)N[C@@H](CCCNC(=N)N)C(=O)N[C@@H](Cc1c[nH]cn1)C(=O)N[C@@H](Cc1ccc(O)cc1)C(=O)N[C@@H](Cc1ccc(O)cc1)C(=O)N[C@@H](CC(N)=O)C(=O)N[C@@H](Cc1c[nH]c2ccccc12)C(=O)N[C@@H](CC(C)C)C(=O)N[C@H](C(=O)N[C@@H](CCCNC(=N)N)C(=O)N[C@@H](CCC(N)=O)C(=O)N[C@@H](CCCNC(=N)N)C(=O)N[C@@H](Cc1ccc(O)cc1)C(N)=O)[C@@H](C)O)C(C)C [Compound 11, N{alpha-4}-(3-methylbutanoyl)-N{epsilon-7}-[2-(2-{2-[2-(2-{2-[(4S)-4-carboxy-4-(17-carboxyheptadecanamido)butanamido]ethoxy}ethoxy)acetamido]ethoxy}ethoxy)acetamido]-[4A,7K,9E,17I,18Q,19Q,22V,28Y,30W,31L]hPYY (4-36)] | 0.000334 µM | 42 % vehicle | > 5 µM | > 5 µM | > 5 µM |  | 
2 | CC[C@H](C)[C@H](NC(=O)[C@H](CCC(=O)O)NC(=O)[C@H](CCC(=O)O)NC(=O)[C@@H]1CCCN1C(=O)[C@@H](NC(=O)[C@H](C)NC(=O)[C@H](CC(=O)O)NC(=O)[C@H](CCC(=O)O)NC(=O)[C@H](CCC(=O)O)NC(=O)[C@@H]1CCCN1C(=O)[C@H](CCCCNC(=O)COCCOCCNC(=O)COCCOCCNC(=O)CC[C@H](NC(=O)CCCCCCCCCCCCCCCCC(=O)O)C(=O)O)NC(=O)[C@H](CCC(=O)O)NC(=O)[C@@H]1CCCN1C(=O)[C@H](C)NC(=O)CC(C)C)[C@@H](C)O)C(=O)N[C@@H](CCC(N)=O)C(=O)N[C@@H](CCCNC(=N)N)C(=O)N[C@@H](Cc1ccc(O)cc1)C(=O)N[C@@H](Cc1ccc(O)cc1)C(=O)N[C@H](C(=O)N[C@@H](CO)C(=O)N[C@@H](CC(C)C)C(=O)N[C@@H](CCCNC(=N)N)C(=O)N[C@@H](Cc1c[nH]cn1)C(=O)N[C@@H](Cc1ccc(O)cc1)C(=O)N[C@@H](Cc1ccc(O)cc1)C(=O)N[C@@H](CC(N)=O)C(=O)N[C@@H](Cc1c[nH]c2ccccc12)C(=O)N[C@@H](CC(C)C)C(=O)N[C@H](C(=O)N[C@@H](CCCNC(=N)N)C(=O)N[C@@H](CCC(N)=O)C(=O)N[C@@H](CCCNC(=N)N)C(=O)N[C@@H](Cc1ccc(O)cc1)C(N)=O)[C@@H](C)O)C(C)C [Compound 171, N{alpha-4}-(3-methylbutanoyl)-N{epsilon-7}-[2-(2-{2-[2-(2-{2-[(4S)-4-carboxy-4-(17-carboxyheptadecanamido)butanamido]ethoxy}ethoxy)acetamido]ethoxy}ethoxy)acetamido]-[4A,7K,9E,13T,17I,18Q,22V,28Y,30W,31L]hPYY (4-36)] |  |  | > 5 µM | > 5 µM | > 5 µM | 0.003 µM | 
3 | CC(C)CC(=O)N[C@@H](C)C(=O)N1CCC[C@H]1C(=O)N[C@@H](CCC(=O)O)C(=O)N[C@@H](CCCCNC(=O)COCCOCCNC(=O)COCCOCCNC(=O)CC[C@H](NC(=O)CCCCCCCCCCCCCCCCC(=O)O)C(=O)O)C(=O)N1CCC[C@H]1C(=O)N[C@@H](CCC(=O)O)C(=O)N[C@@H](CCC(=O)O)C(=O)N[C@@H](CC(=O)O)C(=O)N[C@@H](C)C(=O)N[C@H](C(=O)N1CCC[C@H]1C(=O)N[C@@H](CCC(=O)O)C(=O)N[C@@H](CCC(=O)O)C(=O)N[C@@H](CC(C)C)C(=O)N[C@@H](CCC(N)=O)C(=O)N[C@@H](CCCCN)C(=O)N[C@@H](Cc1ccc(O)cc1)C(=O)N[C@@H](Cc1ccc(O)cc1)C(=O)N[C@H](C(=O)N[C@@H](CO)C(=O)N[C@@H](CC(C)C)C(=O)N[C@@H](CCCNC(=N)N)C(=O)N[C@@H](Cc1c[nH]cn1)C(=O)N[C@@H](Cc1ccc(O)cc1)C(=O)N[C@@H](Cc1ccc(O)cc1)C(=O)N[C@@H](CC(N)=O)C(=O)N[C@@H](Cc1c[nH]c2ccccc12)C(=O)N[C@@H](CC(C)C)C(=O)N[C@H](C(=O)N[C@@H](CCCNC(=N)N)C(=O)N[C@@H](CCC(N)=O)C(=O)N[C@@H](CCCNC(=N)N)C(=O)N[C@@H](Cc1ccc(O)cc1)C(N)=O)[C@@H](C)O)C(C)C)[C@@H](C)O [Compound 231, N{alpha-4}-(3-methylbutanoyl)-N{epsilon-7}-[2-(2-{2-[2-(2-{2-[(4S)-4-carboxy-4-(17-carboxyheptadecanamido)butanamido]ethoxy}ethoxy)acetamido]ethoxy}ethoxy)acetamido]-[4A,7K,9E,13T,18Q,19K,22V,28Y,30W,31L]hPYY (4-36)] | 0.000107 µM |  | > 5 µM | > 5 µM | > 5 µM |  | 0.00196 µM
